# Key:
# [1] = molecular target: T1, 5-HT7 (Homo sapiens, UniProt P34969); assay: Functional cAMP assay (LANCE Ultra), 5-HT7; assay type: cell-based; settings: Table 3, unit inferred, agonist mode
# T1 construct: expressed in transfected cells; host or cells: HEK293
# [2] = test system: cancer cell lines; assay: Antiproliferative activity over the tested cancer cell lines; assay type: cell-based; settings: Homo sapiens; range or bound over several cell lines
# Experimental: The chosen group of ligands was further examined for their ability to inhibit proliferation across multiple cancer cell lines related to the CNS system (1321N1, U87MG, LN-229, and U-251). These cell lines were characterized by different mutation profiles, the main one being the variable status of the p53 protein. In detail, U87MG cells have a wild-type p53 protein, while astrocytoma and the rest of GBM cells harbor mutated p53 protein. Additional assays were performed on MCF7 breast cancer and AsPC-1 pancreatic cancer cells. The wide range of tested lines was aimed at screening the anticancer potential of the tested compounds. The first represents one of the most common and the second one of the most aggressive cancers in the world. Comparing the activity of compounds on GBM cells to other types of cancer may reveal their selectivity and usefulness in targeted therapies. The cytotoxicity of the compounds on normal human astrocytes (NHA) and Feline catus astrocyte (PG-4) was determined. Tests on normal lines serve to verify the potential toxicity of the tested compounds on healthy cells. Due to the targeting of CNS tumors, astrocytes were selected as normal lines.
# The detailed procedure is presented in previous publications.[53] […] Cell viability was assessed using the MTS assay, and the inhibitory concentration (IC50) was calculated using GraphPad Prism 8.0. […]
# T1 sequence (P34969 whole entry, species assumed): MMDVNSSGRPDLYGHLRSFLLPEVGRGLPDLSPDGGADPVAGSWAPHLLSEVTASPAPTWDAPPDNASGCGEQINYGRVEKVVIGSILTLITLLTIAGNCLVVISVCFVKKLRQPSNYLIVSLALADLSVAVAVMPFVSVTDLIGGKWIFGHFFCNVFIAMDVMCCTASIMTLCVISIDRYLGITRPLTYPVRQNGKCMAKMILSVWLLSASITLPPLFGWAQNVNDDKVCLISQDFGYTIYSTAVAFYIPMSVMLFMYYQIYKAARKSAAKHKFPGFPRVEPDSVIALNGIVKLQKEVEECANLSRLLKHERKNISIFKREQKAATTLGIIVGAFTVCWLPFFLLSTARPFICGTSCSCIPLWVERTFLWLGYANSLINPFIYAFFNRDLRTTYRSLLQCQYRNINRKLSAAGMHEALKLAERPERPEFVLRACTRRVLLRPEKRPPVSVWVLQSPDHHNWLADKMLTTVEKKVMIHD
EC50 [1] [µM],IC50 [2] [µM],SMILES
0.053,,"CC1NC(NCCCCCCNS(=O)(=O)c2c(Cl)ccc3ccccc23)=Nc2ccccc21 (centres unmarked) [PP 13, 2-Chloro-N-{6-[(4-methyl-3,4-dihydroquinazolin-2-yl)amino]hexyl}naphthalene-1-sulfonamide]"
,7.4 to 18.3,"O=S1(=O)c2cccc3cccc(c23)N1CCCCCCNC1=Nc2ccccc2CN1 [PP 24, 3-{6-[(3,4-Dihydroquinazolin-2-yl)amino]hexyl}-2λ^6-thia-3-azatricyclo[6.3.1.0^4,^12]dodeca-1(11),4(12),5,7,9-pentaene-2,2-dione]"

# Reference: PMC11866022, “Long-Chain Cyclic Arylguanidines as Multifunctional Serotonin Receptor Ligands with Antiproliferative Activity” (ACS Omega, 2025)
